This is an account of results in US11713293B2, “Substituted biaryl sulfonamides and the use thereof” (NovoMedix, LLC, priority 2012, dated 2023).

Read-outs that look alike come from different tables or passages of the source.

Data set [1] relates to triple negative breast cancer cell line MDA-MB-468. The experiment in a line: Cell-based IC50 assay, adherent cells, MDA-MB-468. The settings on record: Homo sapiens, 72 hours, CellTiter 96 Aqueous One, metabolically active cells decreased by 50%. The method, then:
(§1) In one embodiment, the IC50s of the compounds provided herein were determined in cell-based assays using adherent cells. In one embodiment, the activity of the compounds provided herein were determined in a cell-based assay using the triple negative breast cancer cell line MDA-MB-468. In one embodiment, the activity of the compounds provided herein were determined in a cell-based assay using the triple negative breast cancer cell line MDA-MB-231. In one embodiment, the activity of the compounds provided herein were determined in a cell-based assay using the triple negative breast cancer cell line 4T1.
(§2) In one embodiment, the cell-based assay may be carried out as provided herein. On day 0, cells were seeded at 20,000 cells per well in 100 μL of media into individual wells of a 96-well tissue culture plate. The next day, compounds were diluted to twice the desired final concentration and added in 100 μL of media for a final volume of 200 μL. Standard solutions for each compound were prepared at 1000× concentration in DMSO. The highest concentration was […]. Serial 1:1 dilutions were made from there for a 6- or 9-point curve (e.g., 20 mM, 10 mM, 5 mM, etc). Compounds were then diluted 1:500 in media, and 100 μL of the resulting solution was added to each well for a final dilution of 1:1000. Each concentration of compound was tested in triplicate. Cells were incubated at 37° C. with 5% CO2. After 72 hours, 20 μL of CellTiter 96 Aqueous One Solution Cell Proliferation Assay (Promega) was added to each well. Cells were placed back in the incubator, and the absorbance at 490 nm was read after 2-3 hours. The concentration of compound that decreased the number of metabolically active cells by 50% was determined and reported as the IC50. “Percent Viability” was determined by subtracting the average background value (media only) and expressed as a ratio to the average value obtained from cells treated with only DMSO.
The IC50s of the compounds provided herein and some reference compounds were determined in cell-based assay using triple negative breast cancer cell line MDA-MB-468.

In data set [2] the test system is triple negative breast cancer cell line MDA-MB-231. The data set can be described thus: Cell-based IC50 assay, adherent cells, MDA-MB-231. The settings on record: Homo sapiens, 72 hours, CellTiter 96 Aqueous One. The method, then:
as §1, §2

The subject of data set [3] is triple negative breast cancer cell line 4T1. The experiment in a line: Cell-based IC50 assay, adherent cells, 4T1. The settings on record: 72 hours, CellTiter 96 Aqueous One. The method, then: as §1
In one embodiment, the cell-based assay may be carried out as provided herein. On day 0, cells were seeded at 20,000 cells per well in 100 μL of media into individual wells of a 96-well tissue culture plate. The next day, compounds were diluted to twice the desired final concentration and added in 100 μL of media for a final volume of 200 μL. Standard solutions for each compound were prepared at 1000× concentration in DMSO. The highest concentration was 30 mM. […] Cells were placed back in the incubator, and the absorbance at 490 nm was read after 2-3 hours. […] “Percent Viability” was determined by subtracting the average background value (media only) and expressed as a ratio to the average value obtained from cells treated with only DMSO.

The test system of data set [4] is m7GpppN-capped luciferase mRNA reporter. The experiment in a line: In vitro HeLa cell extract translation system, translation inhibition. The class given is biochemical. The settings on record: at 10 μM. Here is the method: In one embodiment, the compounds provided herein were assayed for translation inhibition activity using an in vitro HeLa cell extract translation system with an m7GpppN-capped luciferase mRNA reporter.

For data set [5], the system named is purified luciferase protein. The data set can be described thus: Inhibition of purified luciferase protein (specificity control). In kind it is biochemical. The settings on record: at 100 μM.
Another data set relates to cyclin D3. The data set can be described thus: Cyclin D3 levels by Western blot in MDA-MB-231 cells. In kind it is cell-based. The settings on record: 10 μM, at 18 and 24 h. The method, then:
Cyclin D is one of the most commonly overexpressed genes in breast cancer and high levels correlate with poor prognosis. Furthermore, cyclin D overexpression is correlated with triple-negative basal-like tumors. In one embodiment, the effects of a compound provided herein on cyclin D overexpression were evaluated. […] The density ratio of the cyclin D3 band to respective beta-actin band was determined by Western blot analysis and normalized to DMSO (100%).

In data set [6] the test system is highly structured 5′-UTR HB3 (triple stem loop) reporter. The experiment in a line: Translation of mRNAs with highly structured 5′-UTR versus unstructured. The method, then:
Many proteins that drive cancer growth and survival (including the cyclins, c-myc, and Pim-1) have secondary structures in the 5′-UTR of their mRNA that limit the rate of translational initiation. In one embodiment, the effects of a compound provided herein on translation of such mRNAs relative to mRNAs without highly structured 5′-UTRs were evaluated.

The subject of the next data set is MDA-MB-231 breast tumors. The data set can be described thus: Tumor growth inhibition in MDA-MB-231 xenograft model for breast cancer. In kind it is in vivo, Mouse/nude. Here is the method: In one embodiment, the effects of a compound provided herein on tumor growth in a mouse animal model were evaluated. In specific embodiments, the mouse animal model was the MDA-MB-231 xenograft model for breast cancer. Studies were performed to evaluate the effect of a compound provided herein on the growth of MDA-MB-231 breast tumors in mice. The test system that was used is summarized below:
Animals were housed 10 mice per cage in micro-isolators, with sterile corn cob bedding, food, and water. Mice were acclimated for 3 days and given food and tap water ad libitum. Animals were examined prior to initiation of the study to assure adequate health and suitability. […] During the course of the study, 12-hour light/12-hour dark cycle were maintained. A nominal temperature range of 20-23° C. with a relative humidity between 30% and 70% was maintained. LabDiet 5053-certified PicoLab Rodent Diet and sterile water were provided ad libitum during the study.
Exemplary Protocol: Ten mice per group were inoculated s.c. on the left flank with 5×10^6 MDA-MB-231 cells. When tumors reached a mean volume of approximately 100 mm^3, animals began treatment with a compound provided herein (See Table 5). […] Tumors were evaluated every Monday, Wednesday and Friday, body weights and condition were evaluated on a daily basis. […]
Tumor Measurement: Tumors were monitored daily. If, during a daily evaluation, an animal's tumor appeared to have exceeded 1500 mm^3, the tumor was measured; and animals with tumors greater than 1500 mm^3 and/or that had become necrotic and/or hindered movement were euthanized. Tumors were measured twice weekly by measuring each tumor in 2 dimensions, along the largest dimension (length, L) and perpendicular to this dimension (width, W). Tumor weights were calculated using the standard formula: (L×W^2)/2. The mean tumor weight and standard error of the mean were calculated for each group at each time point. […]
Animal Weight: All animals were weighed twice weekly throughout the study. Group weight change was expressed as a daily group mean weight. […]

A short description of data set [7]: Plasma and tumor concentrations at sacrifice in MDA-MB-231 xenograft mice. In kind it is in vivo, Mouse/nude. Here is the method: At study termination, mice still undergoing treatment were given a final dose of compound and sacrificed 2 h later. Average concentrations of compounds in plasma and tumor were determined.
Data set [8] can be described thus: PK study and oral bioavailability, mouse. The class given is in vivo. The settings on record: plasma 0 to 6 h.

Usually IC50 stands for the point on the concentration scale where inhibition reaches its midpoint. A low value points to greater potency in that assay. With `CC(C)c1cc(C(C)C)c(S(=O)(=O)Nc2cc(C(F)(F)F)cc(C(F)(F)F)c2)c(C(C)C)c1` [Compound 1, N-[3,5-Bis(trifluoromethyl)phenyl]-2,4,6-triisopropyl-benzenesulfonamide], the concentration for half-maximal inhibition (IC50) in data set [1] worked out at 5 µM; in [2], 13 µM; in data set [3] it was 15 µM. Besides, in [4], the “inhibition of luciferase activity vs. DMSO” value turned out to be 97.4%. Also, the “inhibition of purified luciferase protein” value in [5] is “no inhibition”. In addition, the “cyclin D3 levels (density ratio to beta-actin, normalized to DMSO)” value with cyclin D3 is reported as “decrease in cyclin D3 levels”. Besides, in data set [6], the “inhibition of highly structured 5′-UTR reporter relative to mRNAs without highly structured 5′-UTRs” value is listed as “preferential inhibition”. Also, the “mean tumor volume at Day 31” value in the data set with MDA-MB-231 breast tumors (qd IP 50 mg/kg, reduced to 25 mg/kg on day 7, vehicle group 898±260 mm^3) was determined as 276±119 mm^3. In the data set with MDA-MB-231 breast tumors (qd IP 50/25 mg/kg, Days 1 to 31, vehicle group 4.2%), this compound gave a mean weight gain of 0.1%. The “tumor growth after drug withdrawal” value in the data set with MDA-MB-231 breast tumors (within 10 days of withdrawal, from day 32) was “tumor growth did not resume”. Also, the “levels in plasma and tumor samples after discontinued treatment” value in data set [7] (mice that discontinued treatment on Day 31, at study termination) is recorded as “detectable levels”. The concentration at 14 days in data set [7] (nude, mouse, plasma, intraperitoneal, treated until the end: No, none after day 31, sacrificed day 45, read-out: Ave. Plasma Conc.) was determined as 50 ± 20 nM. In data set [7] (nude, mouse, plasma, intraperitoneal, treated until the end: Yes, 50/25 mg/kg, sacrificed day 45, 2 h after final dose, read-out: Ave. Plasma Conc.), the concentration at 2 h turned out to be 2330 ± 270 nM. In addition, the “Ave. Tumor Conc.” value in data set [7] (treated until the end: No, none after day 31, sacrificed day 45) is on record as 0.07 ± 0.04 μM/g of tumor tissue; in data set [7] (treated until the end: Yes, 50/25 mg/kg, sacrificed day 45, 2 h after final dose), 1.25 ± 0.09 μM/g of tumor tissue. Also, the C0 worked out at 54600 ng/mL in data set [8] (IV 5 mg/kg, read-out: IV Administration (5 mg/kg) C0) and 5150 ng/mL in data set [8] (PO 25 mg/kg, read-out: PO Administration (25 mg/kg) C0). In addition, the half-life was 2.1 h in data set [8] (IV 5 mg/kg, read-out: IV Administration (5 mg/kg) T½ (converted)) and 1.5 h in [8] (PO 25 mg/kg, read-out: PO Administration (25 mg/kg) T½ (converted)).
